Reference: patent publication US10919899B2, “Imidazopyrazine compounds, preparation methods and uses thereof” (DONGGUAN ZHENXING-BEITE MEDICINE TECHNOLOGY CO., LTD., priority 2017, dated 2021)
Entries after “also recorded” stand apart in the source; their conditions may differ.

What was measured:
[1] = biological target: Itk (h) (Homo sapiens (Human), UniProt Q08881); assay: ITK activity inhibition assay (radioactive protein kinase method, Eurofins); assay type: biochemical
Procedure: (§1) The inhibitory activities of the compound to Tec, Txk, and ITK of human were performed by Eurofins Pharma Discovery Services UK Limited (UK) of the United Kingdom. In the case of Km ATP, the radioactive protein kinase method was adopted by the test. The kinase was diluted with buffer solution (20 mM MOPS, 1 mM EDTA, 0.01% Brij-35, 5% Glycerol, 0.1% […], 1 mg/mL BSA) before the reaction. The compound was dissolved in 100% DMSO and was of 50-fold final reaction concentration.
ITK reaction solution included 8 mM MOPS pH 7.0, 0.2 mM EDTA, 0.33 mg/mL myelin basic protein, 10 mM magnesium acetate, and [γ-^33P]-ATP (about 500 cpm/pmol), 200 μM ATP-Mg was added, after mixing, the reaction was started, the incubation was performed for 40 minutes at room temperature, and 3% phosphoric acid solution was added to terminate the reaction. 10 μl (reaction solution) was placed on P30 filtration membrane, washed with 75 mM phosphoric acid for 5 minutes, and dried with methanol for one time, and then scintillation counting was performed.

[2] = system: HCC827 NSCLC cell; assay: Tumor cell proliferation inhibition assay (CellTiter-Glo), HCC827; assay type: cell-based; details: Homo sapiens, 72 hours, 10% fetal calf serum, read-out: HCC827 anti-proliferative IC50 level
Procedure: (§2) Cell viability was evaluated by measuring a content of triphosadenine (ATP) by using CellTiter-Glo luminescent cell viability assay kit method (Promega, # G7572, Madison, Wis.). Diffuse large B cell lymphoma cell strain TMD-8 and HCC827 NSCL cell strains are purchased from Shanghai Fudan IBS Cell Center and American Type Culture Collection (ATCC). After the cells were digested from a cell culture dish by pancreatin and re-suspended by DPBS culture medium, a Scepter automatic cell counter (Millipore, # PHCC00000) was used for counting to measure a cell density. The cells were diluted to be a solution containing 44,000 cells per milliliter. The cell solution with the adjusted density was added into a cell assay plate with 90 μl per well. The well plate was placed to an incubator with 5% CO2 at 37° C. to be incubated for 24 hours and then added with the compound to be tested with different concentrations. The cells and the compound were together incubated for 72 hours in the presence of 10% fetal calf serum. The content of ATP was measured by using CellTiter-Glo® Luminescent Cell Viability Assay kit (referring to manufacturer's instruction) to evaluate the inhibition to the cell growth. Briefly speaking, each well was added with 30 μl of CellTiter-Glo® reagent, the plate was shaken for 10 minutes to induce the cells to be lysed, and fluorescence signal was detected and recorded by fluorescencelchemiluminescence analyzer Fluoroskan Ascent FL (Thermo Scientific Fluoroskan Ascent FL). The maximal signal value was obtained from cells processed by dimethyl sulfoxide (DMSO) for 72 or 120 hours. The minimal signal value obtained from separate culture medium (wherein the number of cells was zero) was defined as 0. Inhibition ratio %=(maximal signal value-compound signal value)/(maximal signal value−minimal signal value)×100%. The data was processed by using GraphPad Prism V5.0 (GraphPad Software San Diego, Calif.) software. IC50 value was fitted and calculated via S-shaped dose-response curve.

[3] = biological target: EGFR T790M/L858R (Homo sapiens, UniProt P00533, L858R/T790M); assay: EGFR activity inhibition assay (Caliper mobility shift); assay type: biochemical
Text: The conversion ratio data was read on Caliper EZ Reader II (Caliper Life Sciences).

[4] = biological target: BTK (Homo sapiens (Human), UniProt Q06187); assay: BTK kinase activity inhibition assay (Caliper mobility shift); assay type: biochemical; details: ATP 90 μM, read-out: BTK IC50 level
Procedure: Activity of BTK protein kinase was tested by Caliper mobility shift assay (referring to J Biomol Screen 14:31, 2009). The compound of the present disclosure was dissolved in DMSO and then diluted 10-fold with kinase buffer solution (50 mM HEPES-pH 7.5, 0.0015% Brij-35, 10 mM MgCl2, 2 mM DTT). […] 10 μl of a substrate solution of a substrate FAM-labeled SRCtide peptide (Biochem, Cat. No. 112394) and ATP (90 μM) with 2.5-fold final reaction concentration was further added to start the reaction. Then incubation was performed for 10 minutes at room temperature. After incubation for 1 hour 28° C., 25 μl of stopping solution (100 mM HEPES, pH 7.5, 0.015% Brij-35, 0.2% Coating Reagent #3, 50 mM EDTA) was added to terminate the reaction. The conversion ratio data was read on Caliper EZ Reader II (Caliper Life Sciences). The inhibition ratio was calculated and the calculation formula is: inhibition ratio %=(max-conversion)/(max-min)×100 %.

[5] = system: Diffuse large B cell lymphoma cell strain TMD-8; assay: Tumor cell proliferation inhibition assay (CellTiter-Glo), TMD-8; assay type: cell-based; details: Homo sapiens, TMD8; 72 hours, 10% fetal calf serum; read-out: TMD-8 anti-proliferative IC50 level
Procedure: as §2

[6] = biological target: Tec (h) activated (Homo sapiens (Human), UniProt P42680); assay: Tec activity inhibition assay (radioactive protein kinase method, Eurofins); assay type: biochemical
Procedure: as §1
10 μl (reaction solution) was placed on P30 filtration membrane, washed with 75 mM phosphoric acid for 5 minutes, and dried with methanol for one time, and then scintillation counting was performed.

[7] = biological target: Txk (h) (Homo sapiens (Human), UniProt P42681); assay: Txk activity inhibition assay (radioactive protein kinase method, Eurofins); assay type: biochemical
Procedure: as §1
TxK reaction solution contained 8 mM MOPS pH 7.0, 0.2 mM EDTA, 250 μM […], 10 mM magnesium acetate, and [γ-^33P]-ATP (about 500 cpm/pmol), 200 μM ATP-Mg was added, after mixing, the reaction was started, the incubation was performed for 40 minutes at room temperature, and 3% phosphoric acid solution was added to terminate the reaction, 10 μl (reaction solution) was placed on P30 filtration membrane, washed with 75 mM phosphoric acid for 5 minutes, and dried with methanol for one time, and then scintillation counting was performed.

[8] = system: TMD-8 lymphoma cell strain transplanted tumor; assay: Tumor model pharmacodynamic assay, TMD-8 transplanted tumor; assay type: in vivo, mice; details: for T/C (relative tumor volume increased ratio): 18 days
Procedure: The dose-effect relationship of inhibition of the compound to tumor growth in a diffuse large B cell lymphoma cell strain TMD-8 transplanted tumor model was studied in the present assay. When volume of TMD-8 tumor reached around 200 mm^3, the animals were divided into four oral administration groups, i.e. vehicle control group and 50 mg/kg, 100 mg/kg, and 200 mg/kg of compound 1 oral administration groups (n=8/
roup). […]
The tumor volume was measured, and the relative tumor volume (RTV) and the relative tumor volume increased ratio were calculated. RTV=Vt/V0, wherein Vt is the average value of the tumor volume at t^th day after the grouping and administrating, and V0 is the average value of the tumor volume at the grouping day. T/C=treatment group RTV/control group RTVx100%.

[9] = Pharmacokinetic (PK) assay in rats; assay type: in vivo, rat; details: 20 mg/kg oral
Procedure: A male SD rat with 250-300 g of weight was fasted overnight before the assay. The compound to be tested was dissolved in 30% sulfobutyl ether-β-cyclodextrin (SBE-β-CD) and intragastrically administrated to the rat by 20 mg/kg of dosages. Take blood at 15th minute, 30th minute, and 1st, 2nd, 3rd, 4th, 6th, 8th, and 24th hours after the administratation, and about 0.3 mL of blood was taken at each time point. The blood samples were placed into centrifuge tubes containing K2-EDTA (dipotassium ethylene diamine tetraacetate) and plasma was taken via centrifugal treatment (2,000 g, 10 minutes, 4° C.) and stored in a −80° C. of ultra low temperature refrigerator. 50 μL of plasma sample was mixed with 50 μL of internal standard (IS) and extracted with ethyl acetate. After vacuum dried, the residue was re-dissolved in acetonitrile The sample was filtered and injected into LC-MS/MS to be analyzed.

Tec (h) activated, sequence (P42680 whole entry): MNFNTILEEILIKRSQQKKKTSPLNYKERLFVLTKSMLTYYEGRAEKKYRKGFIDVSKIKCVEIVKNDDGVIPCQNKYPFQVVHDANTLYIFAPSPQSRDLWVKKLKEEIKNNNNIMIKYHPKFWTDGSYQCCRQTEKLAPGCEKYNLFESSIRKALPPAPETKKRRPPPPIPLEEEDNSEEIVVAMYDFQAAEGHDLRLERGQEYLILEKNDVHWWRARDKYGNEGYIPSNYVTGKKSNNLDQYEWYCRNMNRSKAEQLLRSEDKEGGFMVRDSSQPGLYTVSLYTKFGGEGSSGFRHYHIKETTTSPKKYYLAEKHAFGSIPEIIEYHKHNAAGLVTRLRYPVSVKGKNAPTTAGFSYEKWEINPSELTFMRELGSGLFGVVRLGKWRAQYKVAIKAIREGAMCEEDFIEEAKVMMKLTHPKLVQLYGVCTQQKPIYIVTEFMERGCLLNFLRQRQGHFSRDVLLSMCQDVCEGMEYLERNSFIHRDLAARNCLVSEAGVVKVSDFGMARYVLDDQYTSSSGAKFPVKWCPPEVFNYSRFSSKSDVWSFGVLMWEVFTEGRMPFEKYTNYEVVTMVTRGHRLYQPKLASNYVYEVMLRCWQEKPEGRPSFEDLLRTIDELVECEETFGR
Itk (h), sequence (Q08881 whole entry): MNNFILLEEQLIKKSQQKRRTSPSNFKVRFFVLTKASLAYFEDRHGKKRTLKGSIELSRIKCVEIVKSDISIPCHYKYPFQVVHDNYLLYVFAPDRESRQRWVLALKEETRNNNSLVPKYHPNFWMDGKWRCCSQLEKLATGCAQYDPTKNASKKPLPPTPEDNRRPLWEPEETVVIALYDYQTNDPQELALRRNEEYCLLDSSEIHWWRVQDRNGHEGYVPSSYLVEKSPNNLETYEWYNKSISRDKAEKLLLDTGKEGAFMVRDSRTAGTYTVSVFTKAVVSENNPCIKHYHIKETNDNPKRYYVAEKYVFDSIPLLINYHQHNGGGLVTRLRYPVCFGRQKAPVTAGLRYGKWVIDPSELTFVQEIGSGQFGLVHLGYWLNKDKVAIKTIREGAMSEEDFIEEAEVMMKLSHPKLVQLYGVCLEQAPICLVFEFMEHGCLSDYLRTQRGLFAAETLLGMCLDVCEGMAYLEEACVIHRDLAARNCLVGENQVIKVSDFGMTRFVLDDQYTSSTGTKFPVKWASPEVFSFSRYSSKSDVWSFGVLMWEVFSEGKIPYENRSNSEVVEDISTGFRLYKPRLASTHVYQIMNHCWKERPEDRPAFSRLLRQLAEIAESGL
Txk (h), sequence (P42681 whole entry): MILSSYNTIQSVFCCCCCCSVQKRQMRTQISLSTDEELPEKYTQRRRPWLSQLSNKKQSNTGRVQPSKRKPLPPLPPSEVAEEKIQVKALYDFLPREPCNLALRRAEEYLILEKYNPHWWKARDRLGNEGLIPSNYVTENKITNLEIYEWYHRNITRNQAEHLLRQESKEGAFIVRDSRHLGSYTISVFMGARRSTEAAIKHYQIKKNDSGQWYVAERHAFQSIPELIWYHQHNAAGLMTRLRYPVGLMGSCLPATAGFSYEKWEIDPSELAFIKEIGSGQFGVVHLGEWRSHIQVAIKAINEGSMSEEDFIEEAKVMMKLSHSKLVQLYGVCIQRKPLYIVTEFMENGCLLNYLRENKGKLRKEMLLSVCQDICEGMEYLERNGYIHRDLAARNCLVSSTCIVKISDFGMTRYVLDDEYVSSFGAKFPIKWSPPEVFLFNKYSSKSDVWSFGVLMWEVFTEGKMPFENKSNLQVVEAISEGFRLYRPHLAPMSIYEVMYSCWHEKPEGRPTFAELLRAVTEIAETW
EGFR T790M/L858R, sequence (P00533 25-1210 T790M/L858R limits assumed): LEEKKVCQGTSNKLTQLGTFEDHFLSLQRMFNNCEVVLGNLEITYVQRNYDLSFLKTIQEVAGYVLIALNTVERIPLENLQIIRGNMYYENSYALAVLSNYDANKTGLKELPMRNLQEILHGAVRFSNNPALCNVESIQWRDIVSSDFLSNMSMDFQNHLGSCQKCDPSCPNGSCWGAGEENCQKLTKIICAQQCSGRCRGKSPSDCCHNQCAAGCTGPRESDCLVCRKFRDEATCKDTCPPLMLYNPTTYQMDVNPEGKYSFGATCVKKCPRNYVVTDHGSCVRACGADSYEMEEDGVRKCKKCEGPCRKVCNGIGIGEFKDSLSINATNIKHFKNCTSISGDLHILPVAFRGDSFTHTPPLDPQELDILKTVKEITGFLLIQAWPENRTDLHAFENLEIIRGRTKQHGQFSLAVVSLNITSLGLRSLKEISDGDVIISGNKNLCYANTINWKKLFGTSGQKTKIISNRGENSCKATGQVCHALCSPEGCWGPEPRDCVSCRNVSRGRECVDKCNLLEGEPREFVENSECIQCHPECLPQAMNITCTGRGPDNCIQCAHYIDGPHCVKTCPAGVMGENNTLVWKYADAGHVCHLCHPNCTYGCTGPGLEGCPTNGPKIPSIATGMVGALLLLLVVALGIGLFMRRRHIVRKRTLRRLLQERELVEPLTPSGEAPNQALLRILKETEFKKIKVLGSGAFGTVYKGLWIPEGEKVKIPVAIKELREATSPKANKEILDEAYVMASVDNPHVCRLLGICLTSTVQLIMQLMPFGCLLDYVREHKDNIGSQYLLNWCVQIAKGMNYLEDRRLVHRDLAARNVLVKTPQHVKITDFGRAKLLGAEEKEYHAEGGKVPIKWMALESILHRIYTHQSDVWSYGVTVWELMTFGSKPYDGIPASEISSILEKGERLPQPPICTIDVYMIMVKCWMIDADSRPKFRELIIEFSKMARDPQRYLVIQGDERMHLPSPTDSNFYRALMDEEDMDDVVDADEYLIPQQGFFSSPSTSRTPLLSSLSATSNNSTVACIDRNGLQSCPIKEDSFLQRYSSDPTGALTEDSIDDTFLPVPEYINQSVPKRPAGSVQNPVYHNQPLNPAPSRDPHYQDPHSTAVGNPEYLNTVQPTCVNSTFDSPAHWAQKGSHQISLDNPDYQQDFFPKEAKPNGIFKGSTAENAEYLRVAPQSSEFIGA
BTK, sequence (Q06187 whole entry): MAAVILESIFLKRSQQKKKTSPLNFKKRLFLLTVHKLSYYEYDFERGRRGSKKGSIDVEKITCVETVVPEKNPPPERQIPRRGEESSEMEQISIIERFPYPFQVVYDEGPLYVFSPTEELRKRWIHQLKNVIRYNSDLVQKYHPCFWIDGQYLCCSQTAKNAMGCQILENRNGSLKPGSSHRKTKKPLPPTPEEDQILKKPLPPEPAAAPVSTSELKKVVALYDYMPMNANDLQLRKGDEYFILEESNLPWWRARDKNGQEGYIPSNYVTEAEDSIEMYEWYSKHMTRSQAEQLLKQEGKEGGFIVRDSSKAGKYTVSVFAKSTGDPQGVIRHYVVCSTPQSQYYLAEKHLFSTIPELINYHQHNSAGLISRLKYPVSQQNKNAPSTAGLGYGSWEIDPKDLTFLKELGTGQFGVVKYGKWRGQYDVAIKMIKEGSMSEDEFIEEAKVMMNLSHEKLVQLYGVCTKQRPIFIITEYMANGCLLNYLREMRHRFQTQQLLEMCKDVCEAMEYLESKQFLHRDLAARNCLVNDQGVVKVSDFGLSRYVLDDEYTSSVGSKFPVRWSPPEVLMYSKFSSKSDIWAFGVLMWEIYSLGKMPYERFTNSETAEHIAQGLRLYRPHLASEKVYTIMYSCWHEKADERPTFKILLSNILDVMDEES

CC#CC(=O)N1CCC[C@H]1c1nc(-c2ccc(OCc3ccccc3)cc2)c2c(N)nccn12 [Compound 1, (S)-1-(2-(8-amino-1-(4-(benzyloxy)phenyl)imidazo[1,5-a]pyrazin-3-yl)pyrrolidin-1-yl)but-2-yn-1-one]
inhibitory activity to ITK (in words) [1]: very low | IC50 ([1]; Km ATP, radiometric): > 10 µM | IC50 [2]: > 10 µM | inhibitory effect on EGFR (in words) [3]: does not inhibit | IC50 ([3]; Km ATP): > 10 µM | IC50 [4]: ≤ 0.1 µM | IC50 [5]: ≤ 0.1 µM | inhibitory activity to Tec (in words) [6]: very low | IC50 ([6]; Km ATP, radiometric): 0.218 µM | inhibitory activity to Txk (in words) [7]: very low | IC50 ([7]; Km ATP, radiometric): 4.54 µM | T/C (relative tumor volume increased ratio) ([8]; 50 mg/kg oral once a day): 71% | T/C (relative tumor volume increased ratio) ([8]; 100 mg/kg oral once a day): 7% | T/C (relative tumor volume increased ratio) ([8]; 200 mg/kg oral once a day): −91% | weight of the animal compared to before the administration ([8]; each administration group, 50, 100, 200 mg/kg oral): increased | inhibition of growth of TMD-8 transplanted tumor (in words) ([8]; oral administration, 50-200 mg/kg): inhibit the growth of TMD-8 transplanted tumor dose-dependently; also recorded: dosage-dependently inhibit the growth | t1/2 ([9]; male SD rat): 4.2 h | AUC(0-inf) ([9]; plasma, male SD rat): 3.49 µg·h/mL | Cmax ([9]; plasma, male SD rat): 1.54 µg/mL | Tmax ([9]; plasma, male SD rat): 0.5 h | half-life ([9]; plasma, male SD rat): 4.2 h | AUC(0-t) ([9]; plasma, male SD rat, read-out: AUC0-24): 3.48 µg·h/mL | AUC relative to ACP-196 ([9]; rat): more than double | Cmax relative to ACP-196 ([9]; rat): more than double | half-life compared to ACP-196 (in words) ([9]; rat): shorter half-life | plasma exposure amount compared to ACP-196 (in words) ([9]; rat): higher plasma exposure amount
